Reference: patent US8426403B2, “Gamma secretase modulators” (priority 2007, dated 2013)

Test system: Aβ42
Assay: Secretase Reaction and Aβ Analysis in Whole Cells (total Aβ, Aβ40, Aβ42 by ECL sandwich immunoassay)
Type: cell-based
Conditions: HEK293 cells overexpressing APP with Swedish and London mutations
Procedure: Secretase Reaction and Aβ Analysis in Whole Cells: HEK293 cells overexpressing APP with Swedish and London mutations were treated with the specified compounds for 5 hour at 37° C. in […] of DMEM medium containing 10% fetal bovine serum. At the end of the incubation, total Aβ, Aβ40 and Aβ42 were measured using electrochemiluminescence (ECL) based sandwich immunoassays. Total Aβ was determined using a pair of antibodies TAG-WO2 and biotin-4G8, Aβ40 was identified with antibody pairs TAG-G2-10 and biotin-4G8, while Aβ42 was identified with TAG-G2-11 and biotin-4G8. The ECL signal was measured using Sector Imager 2400 (Meso Scale Discovery).

COc1cc(/C=C/C2=NC(=O)C(C)(c3ccc(F)cc3)N2)ccc1-n1cnc(C)c1 (centres unmarked) [Compound G4]
Abtotal/Ab42 selectivity (total Aβ versus Aβ42): 11 fold
IC50 (Homo sapiens, 5 hour at 37° C., ECL sandwich immunoassay, read-out: Ab42 IC50): 1110 nM
